Results from ChEMBL document CHEMBL1914286, “Design, structure-activity relationship, and highly efficient asymmetric synthesis of 3-phenyl-4-benzylaminopiperidine derivatives as novel neurokinin-1 receptor antagonists” (Bioorg Med Chem, 2011).

What was measured:
[1] = system: Cavia porcellus; test: Antagonist activity at NK1 receptor in po dosed Hartley guinea pig assessed as inhibition of GR73632-induced hypermotility measured after 0.75 hrs; type: functional; conditions: for ED50: Cavia porcellus, Hartley, po, 0.75 h, read-out: ID50 (the source's name)
[2] = system: Liver microsomes; conditions: human, 1 µM
Description: (§1) Metabolic stability in human liver microsomes at 1 uM

[3] = molecular target: Substance-P receptor (Homo sapiens, UniProt P25103); test: biochemical
Description: Displacement of [125I]BH-SP from NK1 receptor in human IM9 cells after 30 mins by scintillation counting

[4] = species on record: Cavia porcellus; test: animal or person; conditions: Hartley, po, 0.75 h, read-out: INH
[5] = in vitro; conditions: human, liver microsomes, Stability
Description: as §1

[6] = physchem; conditions: buffer, pH 7.4
Description: Lipophilicity, log D of the compound at pH 7.4

Sequence of Substance-P receptor (P25103 whole entry): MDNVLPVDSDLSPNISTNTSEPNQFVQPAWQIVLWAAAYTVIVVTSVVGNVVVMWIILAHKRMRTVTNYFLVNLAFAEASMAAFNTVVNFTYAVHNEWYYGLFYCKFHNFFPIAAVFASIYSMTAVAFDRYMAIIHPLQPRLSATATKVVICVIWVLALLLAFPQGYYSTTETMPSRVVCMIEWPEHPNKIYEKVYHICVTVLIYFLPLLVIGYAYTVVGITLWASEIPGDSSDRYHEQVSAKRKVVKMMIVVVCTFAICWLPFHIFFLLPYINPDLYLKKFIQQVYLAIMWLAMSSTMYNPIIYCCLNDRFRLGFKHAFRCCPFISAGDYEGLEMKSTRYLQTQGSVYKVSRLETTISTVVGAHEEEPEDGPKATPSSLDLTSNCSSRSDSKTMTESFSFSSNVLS

Row | Structure (SMILES) | ID50 [1] | Stability [2] | IC50 [3] | inhibition in vivo at 1 mg/kg [4] | microsomal CLint at 1 µM [5] | logD [6] | ED50 [1]
1 | COc1ccc(-n2nnnc2C(F)(F)F)cc1CN[C@H]1CCN(C(=O)CNC(C)=O)C[C@H]1c1ccccc1 | 0.066 mg/kg | 8 µL/min/mg | – | – | – | – | –
2 | COc1ccc(-n2nnnc2C(F)(F)F)cc1CN[C@@H]1CCN(C(=O)CNC(C)=O)C[C@@H]1c1ccccc1 | – | – | > 100 nM | – | – | – | –
3 | CCN1CC[C@H](NCc2cc(OC(F)(F)F)ccc2OC)[C@H](c2ccccc2)C1 (racemic) | – | – | 4.8 nM | – | – | – | –
4 | COc1ccc(OC(F)(F)F)cc1CN[C@H]1CCN(S(C)(=O)=O)C[C@H]1c1ccccc1 (racemic) | – | – | 1.2 nM | – | – | – | –
5 | COC(=O)N1CC[C@H](NCc2cc(OC(F)(F)F)ccc2OC)[C@H](c2ccccc2)C1 (racemic) | – | – | 0.31 nM | – | – | – | –
6 | COc1ccc(OC(F)(F)F)cc1CN[C@H]1CCN(C(C)=O)C[C@H]1c1ccccc1 (racemic) | – | – | 0.16 nM | – | – | – | –
7 | CCNC(=O)N1CC[C@H](NCc2cc(OC(F)(F)F)ccc2OC)[C@H](c2ccccc2)C1 (racemic) | – | – | 0.17 nM | – | – | – | –
8 | CCNC(=O)N1CC[C@@H](NCc2cc(OC(F)(F)F)ccc2OC)[C@H](c2ccccc2)C1 (racemic) | – | – | 3.7 nM | – | – | – | –
9 | CCN1CC[C@H](NCc2cc(-n3nnnc3C(F)(F)F)ccc2OC)[C@H](c2ccccc2)C1 (racemic) | – | – | 1.9 nM | – | – | – | –
10 | COc1ccc(-n2nnnc2C(F)(F)F)cc1CN[C@H]1CCN(S(C)(=O)=O)C[C@H]1c1ccccc1 (racemic) | – | – | 0.075 nM | 18% | 144 µL/min/mg | – | –
11 | COC(=O)N1CC[C@H](NCc2cc(-n3nnnc3C(F)(F)F)ccc2OC)[C@H](c2ccccc2)C1 (racemic) | – | – | 0.054 nM | 65% | 199 µL/min/mg | – | –
12 | COc1ccc(-n2nnnc2C(F)(F)F)cc1CN[C@H]1CCN(C(C)=O)C[C@H]1c1ccccc1.Cl (racemic) | – | – | 0.049 nM | 82% | 111 µL/min/mg | 2.69 | 0.2 mg/kg
13 | CCNC(=O)N1CC[C@H](NCc2cc(-n3nnnc3C(F)(F)F)ccc2OC)[C@H](c2ccccc2)C1.Cl (racemic) | – | – | 0.039 nM | 70% | 159 µL/min/mg | 2.79 | 0.37 mg/kg
14 | CCNC(=O)N1CC[C@H](NCc2cc(-n3nnnc3C(F)(F)F)ccc2OCC)[C@H](c2ccccc2)C1 (racemic) | – | – | 0.086 nM | 35% | 218 µL/min/mg | – | –
15 | CCNC(=O)N1CC[C@H](NCc2cc(-n3nnnc3C(F)(F)F)ccc2OC2CC2)[C@H](c2ccccc2)C1 (racemic) | – | – | 0.044 nM | 94% | 217 µL/min/mg | – | –
16 | CCNC(=O)N1CC[C@H](NCc2cc(-n3nnnc3C(F)(F)F)cc3c2OCC3)[C@H](c2ccccc2)C1 (racemic) | – | – | 0.093 nM | 57% | 160 µL/min/mg | – | –
17 | COc1ccc(-n2nnnc2C(F)(F)F)cc1CN[C@H]1CCN(C(=O)NC(C)C)C[C@H]1c1ccccc1 (racemic) | – | – | 0.081 nM | 66% | 167 µL/min/mg | 3.09 | –
18 | COc1ccc(-n2nnnc2C(F)(F)F)cc1CN[C@H]1CCN(C(=O)NCC(F)(F)F)C[C@H]1c1ccccc1 (racemic) | – | – | 0.057 nM | 65% | 155 µL/min/mg | 3.03 | –
19 | COc1ccc(-n2nnnc2C(F)(F)F)cc1CN[C@H]1CCN(C(=O)N(C)C)C[C@H]1c1ccccc1 (racemic) | – | – | 0.13 nM | 90% | 213 µL/min/mg | 3.18 | –
20 | COc1ccc(-n2nnnc2C(F)(F)F)cc1CN[C@H]1CCN(C(=O)C2CN(C(C)=O)C2)C[C@H]1c1ccccc1 (racemic) | – | – | 0.057 nM | 32% | 27 µL/min/mg | 2.31 | –
21 | COc1ccc(-n2nnnc2C(F)(F)F)cc1CN[C@H]1CCN(C(=O)C2CCN(C(C)=O)CC2)C[C@H]1c1ccccc1.Cl (racemic) | – | – | 0.1 nM | 85% | 76 µL/min/mg | 2.51 | 0.33 mg/kg
22 | COc1ccc(-n2nnnc2C(F)(F)F)cc1CN[C@H]1CCN(C(=O)CNC(C)=O)C[C@H]1c1ccccc1 (racemic) | 0.26 mg/kg | 32 µL/min/mg | 0.073 nM | 99% | – | 2.28 | –
23 | COc1ccc(-n2nnnc2C(F)(F)F)cc1CN[C@H]1CCN(C(=O)CCNC(C)=O)C[C@H]1c1ccccc1.Cl (racemic) | – | – | 0.054 nM | 79% | 95 µL/min/mg | 2.35 | 0.34 mg/kg
24 | COc1ccc(-n2nnnc2C(F)(F)F)cc1CN[C@H]1CCN(C(=O)CCCNC(C)=O)C[C@H]1c1ccccc1 (racemic) | – | – | 0.025 nM | – | 146 µL/min/mg | 2.43 | –
25 | COc1ccc(-n2nnnc2C(F)(F)F)cc1CN[C@H]1CCN(C(=O)CN(C)C(C)=O)C[C@H]1c1ccccc1 (racemic) | – | – | 0.084 nM | 74% | 73 µL/min/mg | 2.31 | –
26 | COc1ccc(-n2nnnc2C(F)(F)F)cc1CN[C@@H]1CCN(C(=O)CNC(C)=O)C[C@H]1c1ccccc1 (racemic) | – | – | 0.2 nM | – | 34 µL/min/mg | – | –
27 | COc1ccc(-n2nnnc2C(F)(F)F)cc1CN[C@H]1CCNC[C@H]1c1ccccc1 (racemic) | – | – | 1.4 nM | – | – | – | –
28 | COc1ccc(OC(F)(F)F)cc1CN[C@H]1CCNC[C@H]1c1ccccc1 (racemic) | – | – | 8.4 nM | – | – | – | –
